In a melting point compilation (Tetko et al.; mined from patent text by program, amines drawn as free bases though some values may be those of a salt):

| melting point [°C] | SMILES |
| --- | --- |
| 196 to 198 | COc1nc2ncnc(NCc3ccco3)c2[nH]1 |
| 112 to 114 | COC(=O)C(Oc1cc(OCc2ccsc2)ccc1C#N)c1ccccc1 (racemic) |
| 116 | Cc1cc(O)cc(C)c1-c1cccc2c1Oc1ccccc1S2 |
| 183 to 184 | O=C1N(C(c2ccccc2)c2ccccc2)c2c(F)cccc2C12COc1cc3c(cc12)CCO3 (stereo unspecified) |
| 178 to 180 | COc1cc(C)nc(NC(=O)NS(=O)(=O)c2cccc3nc(C)sc23)n1 |
| 167 | CCCCCCCCCCCCCCCCCCNC(=O)C(=O)NCCc1ccc(O)cc1 |
| 134 to 136 | CCC(C)n1c(=O)nc(SC)[nH]c1=O (stereo unspecified) |
| 172 to 175 | COc1cc2ncnc(N3CCC(C(=O)CN4C=CC(C)=NS4(=O)=O)CC3)c2cc1OC |
| 120 | CCOC(=O)N1CC(=O)NC(=O)N1Cc1ccc(Cl)cc1 |
| 137 to 138 | CCCCn1cc(S(C)=O)c(=O)c2sccc21 (stereo unspecified) |
| 101 to 104 | O=C(O)CCNC(=O)c1ccc(-c2ccccc2OC2OC(CO)C(O)C(O)C2O)cc1 (stereo unspecified) |
| 185 to 187 | C=CCn1c(C(F)(F)F)nc2cc(-n3c(=O)cc(C(F)(F)F)n(C)c3=O)ccc21 |
| 112 to 115 | Cc1c(SCc2ccc(-c3ccccc3)cc2)cnn(C(C)(C)C)c1=O |
| 237 to 239 | COC(=O)c1coc(-c2ccc(NS(=O)(=O)c3sc4ccc(Cl)cc4c3C)c(S(C)(=O)=O)c2)n1 |
| 130 | c1ccc(CN2C[C@@H]3SCCC(c4ccccc4)(c4ccccc4)[C@@H]3C2)cc1 (racemic) |
| 254 to 256 | c1ccc(Cn2ncc3c(NCC4CCCCC4)c4ccccc4nc32)cc1 |
| 160 to 162 | Oc1ncc(Br)cc1C(F)(F)F |
| 78 | Cc1cccc(C2CCCN2S(=O)(=O)c2ccc(Cl)cc2)c1 (racemic) |
| 121 to 124 | CCN(C)C(N)=C(C#N)C(N)=S |
| 66 to 68 | CCCN(CC1CC1)c1nc(C)[nH]c2c(-c3ccc(Cl)cc3Cl)nc(C)c1-2 |
| 178 to 180 | COc1ccc(C(=O)Nc2ccccc2)cc1Nc1ccc(F)cc1 |
| 73 to 75 | CCOC(=O)c1cnc2c(c(C)nc3cc(C)nn32)c1NCCCN(C)C |
| 141 to 142 | CC(=O)N(CCCC(=O)O)C1CCCc2ccccc21 (stereo unspecified) |

| melting point [°C] | SMILES |
| --- | --- |
| 144 to 146 | COC(=O)c1ccc(NC(=O)CBr)cc1 |
| 81 to 82 | O=C1c2ccccc2C(=O)N1CCCOc1ccncc1 |
| 107 to 110 | CCCCC(=O)c1ccc(O)c(Cl)c1Cl |
| 193 to 196 | CCNC(=O)Nc1ccc(-c2ccc3nnn(Cc4ccc5ncccc5c4)c3n2)cc1 |
| 180 to 186 | CS(=O)(=O)N(Cc1cccnc1)c1ccc(Cl)cc1Cl |
| 155 to 156 | Cc1oc(-c2ccc3ccccc3c2)nc1COc1ccc(COc2ncccc2CC(=O)O)cc1 |
| 155 to 157 | c1ccc(CNCc2n[nH]c(-c3ccc(CN4CCCCCC4)s3)n2)cc1 |
| 121 to 123 | CCn1c(C2CCCO2)nc2c(N)nc(OCCc3ccccc3)nc21 (stereo unspecified) |
| 106 to 107 | CCOC(=O)CN(c1c([N+](=O)[O-])cc([N+](=O)[O-])c2ccccc12)S(=O)(=O)c1ccc(C)cc1 |
| 200 to 202 | CC(=O)NC[C@H]1NC(=O)[C@H]1NC(=O)Cc1ccccc1 (relative stereo) |
| 161 to 162 | CCCCc1nn(C)c2c1CCc1c(C(N)=O)sc(Oc3ccc4c(c3)OCO4)c1-2 |
| 78 | Cc1ccc(NC(=O)C(C)C)o1 |
| 297 to 299 | COc1cc(OC)c2c(=O)[nH]c(-c3cc(C)c(O)c(C)c3)nc2n1 |
| 215 to 217 | CN(C)CCCOc1cc(-c2ncccc2Cl)cc2c(Nc3nccs3)n[nH]c12 |
| 313 | O=C(O)c1ccc(C(=O)O)c(Cl)c1 |
| 104 | CCOC(=O)N1CCc2nc3ccccc3c(Cl)c2CC1 |
| 140 to 142 | CC(C)(C)NC(=S)Nc1cc(F)cc(F)c1 |
| 276 to 277 | O=C(O)Cc1c(-c2ccccc2)[nH]c2nccnc12 |
| 257 to 258 | Cc1c(F)cc(C(C)(C)C)c(O)c1-c1nc2ccc(S(=O)(=O)C(F)(F)F)cc2c(=O)[nH]1 |
| > 300 | O=c1[nH]c2cc(Cl)ccc2c(O)c1-c1ccc(Cl)cc1 |
| 90 to 91 | Nc1cnc(-c2ccc(F)cc2)n(CC(=O)N[C@@H](Cc2ccccc2)C(=O)C(F)(F)C(=O)NCc2ccccc2)c1=O |
| 155 to 156 | CCOC(=O)c1cc(=O)c2cc(Oc3ccccc3)c(NS(C)(=O)=O)cc2o1 |
| 227 | O=C(Nc1cccc(S(=O)(=O)NCCO)c1)c1cnn2c(C(F)(F)F)cc(-c3ccc(C(F)(F)F)cc3)nc12 |

| melting point [°C] | SMILES |
| --- | --- |
| 157 | FC(F)c1cc(Cl)nc2c1c(I)nn2C1CCCCO1 (stereo unspecified) |
| 244 to 245 | NNC(=O)c1ccn2ncnc2c1 |
| 180 to 181 | CN1CC2=C(n3cnc(C#CC(C)(C)O)c3C1)S(=O)C=C2 (stereo unspecified) |
| 114 to 115 | COc1ccccc1CCSc1c(O)cc(-c2ccccc2)oc1=O |
| 164 to 166 | CCCCCn1c(C)cc(=O)c(C(=O)Nc2ccccc2)c1-c1ccccc1 |
| > 300 | COc1ccc2[nH]c3cc(C(=O)O)c4c(c3c2c1)C(=O)NC4=O |
| 90 | CC(C)(C)OC(=O)C(Nc1ccccc1)c1cccc(F)c1 (racemic) |
| 175 to 176 | CC(=O)O[C@@H]1OCC[C@@H]1NC(=O)[C@H](Cc1ccccc1)NC(=O)OCc1ccccc1 |
| 122 to 125 | Cc1c(-c2ccc3c(c2)OCO3)n(Cc2ccc(OCCN3CCCCC3)cc2)c2ccc(O)cc12 |
| 70.8 to 72.1 | COc1ccc2ccccc2c1-c1c(C)c2c(c(C)c1P(=O)(c1ccccc1)c1ccccc1)CCC2 |
| 160 to 161 | CCCCOC(=O)C(N)C=CCP(=O)(O)O (stereo unspecified) |
| 119 to 120 | CCCc1cc(Cl)c2oc(C(=O)OCc3ccccc3)c(C)c2c1O |
| 175 | CCOC(=O)N1CCCC(Nc2nc3ccccc3[nH]2)CC1 (stereo unspecified) |
| 79 to 83 | CC(C)(C)c1ccc(N2CCOCC2)c(NP(=O)(O)O)c1 |
| 202 to 204 | COc1cc2nc(N3CCN(c4ccc(Cl)ccc4=O)CC3)nc(N)c2cc1OC |
| 266 to 268 | Cn1c([N+](=O)[O-])cnc1-c1nnc(N)s1 |
| > 300 | CC(=O)Nc1ccc(/C=C/c2cc(/C=C/c3ccc4cc[nH]c4c3)[nH]n2)cc1 |
| 190 to 192 | O=C(O)c1cccc(-c2nn(Cc3ccccc3)c3ccccc23)c1 |
| 168 to 171 | COc1ccc(C(NCCC2CCCCC2)c2cccc(Nc3c(N)c(=O)c3=O)c2)cc1 (stereo unspecified) |
| 175 to 176 | CC=Cc1cnc(C2=NC(C)(C(C)C)C(=O)N2)c(C(=O)O)c1 (stereo unspecified) |
| 140 to 142 | O=[N+]([O-])c1cc(Cl)c(Oc2ccccc2)cc1NCc1cccc(C(F)(F)F)c1 |
| 146 | COc1cc2c(cc1O)C(Cc1cc(Br)c(OC)cc1[N+](=O)[O-])N(C)CC2 (stereo unspecified) |

| SMILES | melting point [°C] |
| --- | --- |
| S=C1CN=C(c2ccccn2)c2cc(Cl)ccc2N1 | 217 to 218 |
| COc1cc2c(cc1F)C(c1ccccc1Cl)=NC1=C(C)NNC1=N2 | 217 to 218 |
| OC(CCN1CC=C(c2ccccc2)CC1)c1ccc(CCc2ccc(Cl)cc2)cc1 (stereo unspecified) | 158 to 160 |
